Like-named read-outs stand apart in the source and are kept apart here.
What was measured:
[1] = system: adherent cells or suspension cells; test: Hoechst 33342 nuclear staining (fraction of apoptotic nuclei); format: cell-based; set-up: key: 0 relating to no activity; 1 relating to weak activity comprising less than 70% of the cells; score 2 relating to strong activity comprising more than 70% of the cells
Jily = test: MTS proliferation assay, Jily; format: cell-based; settings: 72 h incubation, read-out: MTS proliferation assay IC 50 Jily
Method: (§1) Cell lines are cultured in RPMI-1640 tissue culture medium containing either 5% or 10% fetal calf serum, 0.05 mM 2-mercaptoethanol, 2 mM glutamine and penicillin/streptomycin 50 μg/ml (complete medium) (Sigma, Buchs, Switzerland). General growth conditions are 37° C. and 7.5% CO2.
(§2) The assay is performed in 96 well tissue culture plates. The cells (range: 1.5*10^3-10^4) are seeded out in 80 μl complete medium 24 h prior to compound treatment. The test compounds are added in 20 μl complete medium containing max 5% DMSO. The final compound concentrations in the assays are 10 μM, 3 μM, 1 μM and 0.3 μM, respectively. The assay plates are incubated for 72 h at culture conditions. The MTS reagent is prepared according to the manufacturer's protocol (Promega G1111). 20 μl MTS reagent are added to each well, the assay plates are quickly spun and incubated for another 3 h at culture conditions. Subsequently, the plates are shortly shaked and absorption measured with a microplate-reader at 492 nm.

HT1080 = test: MTS proliferation assay, HT1080; format: cell-based, human; settings: HT1080, 72 h incubation; read-out: MTS proliferation assay IC 50 HT1080
Method: as §1
The following human cell lines (either EGFP transfected or not) are being used: HeLa (ATCC: CCL-2), KB (ATCC: CCL-17), MCF7 (ATCC: HTB-22), SK-BR-3 (ATCC: HTB-30), SK-Mel 1 (ATCC: HTB-67), SK-Mel 28 (ATCC: HTB-72), PC-3 (ATCC: CRL-1435), SW 480 (ATCC: CCL-228), NCl-H460 (ATCC: HTB-177), NCl-H1792 (ATCC: CRL-5895), HT1080 (ATCC: CCL-21), Jurkat (ATCC: TIB-152), Ramos (ATCC: CRL-1596), Raji (ATCC: CCL-86), H9 (ATCC: HTB-176), Hut78 (ATCC: TIB-161), K562 (ATCC: CCL 243), HL-60 (ATCC: CCL 240), U-87MG (ATCC: HTB-14), HepG2 (ATCC: HB-8065), U-2 OS (ATCC: HTB-96), Saos-2 (ATCC: HTB-85), U937 (ATCC: CRL 1593), Hs 578T (ATCC: HTB 126), HBL-100 (ATCC: HTB 124), Molt-4 (ATCC: CRL 1582).
as §2

MRC5 = test: MTS proliferation assay, MRC5; format: cell-based; settings: MRC5, 72 h incubation; read-out: MTS proliferation assay IC 50 MRC5
Method in brief: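 Read-out: MTS absorbance at 492 nm after 3 h reagent incubation. Before that, cells grew 72 h at 37° C/7.5% CO2 with test compounds at final concentrations of 10 μM, 3 μM, 1 μM and 0.3 μM, added 24 h post-seeding.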

HeLa = test: MTS proliferation assay, HeLa; format: cell-based, human; settings: 72 h incubation, read-out: MTS proliferation assay IC 50 HeLa
Method in brief: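 Absorbance at 492 nm after 3 h with MTS reagent gave the proliferation read-out. Before that, cells in RPMI-1640 complete medium (5% or 10% FCS) were treated 72 h with compound at four final concentrations, 0.3 to 10 μM.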

Row | IC50 (HeLa) [nM] | SMILES | Hoechst 33342 nuclear staining score ([1]; H460, conc 0.01 μm) | Hoechst 33342 nuclear staining score ([1]; H460, conc 0.1 μm) | Hoechst 33342 nuclear staining score ([1]; H460, conc 1 μm) | Hoechst 33342 nuclear staining score ([1]; HeLa, conc 0.01 μm) | Hoechst 33342 nuclear staining score ([1]; HeLa, conc 0.1 μm) | Hoechst 33342 nuclear staining score ([1]; HeLa, conc 1 μm) | Hoechst 33342 nuclear staining score ([1]; Jily, conc 0.01 μm) | Hoechst 33342 nuclear staining score ([1]; Jily, conc 0.1 μm) | Hoechst 33342 nuclear staining score ([1]; Jily, conc 1 μm) | Hoechst 33342 nuclear staining score ([1]; Jurkat, conc 0.01 μm) | Hoechst 33342 nuclear staining score ([1]; Jurkat, conc 0.1 μm) | Hoechst 33342 nuclear staining score ([1]; Jurkat, conc 1 μm) | Hoechst 33342 nuclear staining score ([1]; MRC5, conc 0.01 μm) | Hoechst 33342 nuclear staining score ([1]; MRC5, conc 0.1 μm) | Hoechst 33342 nuclear staining score ([1]; MRC5, conc 1 μm) | Hoechst 33342 nuclear staining score ([1]; PBLs, conc 0.01 μm) | Hoechst 33342 nuclear staining score ([1]; PBLs, conc 0.1 μm) | Hoechst 33342 nuclear staining score ([1]; PBLs, conc 1 μm) | IC50 (Jily) [nM] | further results
1 | 10 to 100 | Cc1ccc(OCn2c(-c3nonc3N)nc3ccccc32)cc1C [Example 101] | 0 | 1 (1 relating to weak activity comprising less than 70% of the cells) | 2 (score 2 relating to strong activity comprising more than 70% of the cells) | 0 | 1 (1 relating to weak activity comprising less than 70% of the cells) | 2 (score 2 relating to strong activity comprising more than 70% of the cells) | 0 | 1 (1 relating to weak activity comprising less than 70% of the cells) | 2 (score 2 relating to strong activity comprising more than 70% of the cells) | 0 | 2 (score 2 relating to strong activity comprising more than 70% of the cells) | 2 (score 2 relating to strong activity comprising more than 70% of the cells) | 0 | 1 (1 relating to weak activity comprising less than 70% of the cells) | 1 (1 relating to weak activity comprising less than 70% of the cells) | 0 | 0 | 0 | 10 to 100 | IC50 (HT1080): 10 to 100 nM; IC50 (MRC5): 10 to 100 nM
2 | > 1000 | Nc1nonc1-c1nc2ccccc2n1COc1cc(C(F)(F)F)cc(C(F)(F)F)c1 [Example 102] | 0 | 0 | 1 (1 relating to weak activity comprising less than 70% of the cells) | 0 | 0 | 0 | 0 | 0 | 1 (1 relating to weak activity comprising less than 70% of the cells) | 0 | 0 | 2 (score 2 relating to strong activity comprising more than 70% of the cells) | 0 | 0 | 0 | 0 | 0 | 0 | 100 to 1000 | IC50 (HT1080): > 1000 nM; IC50 (MRC5): 100 to 1000 nM
3 | – | Cc1ccc(OCn2c(-c3nonc3NCCC#N)nc3ccccc32)cc1C [Example 10, 4-[1-(3,4-Dimethylphenoxymethyl)-1H-benzimidazol-2-yl]-furazan-3-yl-N-(2-cyanoethyl)-amine] | 0 | 1 (1 relating to weak activity comprising less than 70% of the cells) | 2 (score 2 relating to strong activity comprising more than 70% of the cells) | 0 | 0 | 2 (score 2 relating to strong activity comprising more than 70% of the cells) | 0 | 1 (1 relating to weak activity comprising less than 70% of the cells) | 2 (score 2 relating to strong activity comprising more than 70% of the cells) | 0 | 2 (score 2 relating to strong activity comprising more than 70% of the cells) | 2 (score 2 relating to strong activity comprising more than 70% of the cells) | 0 | 0 | 1 (1 relating to weak activity comprising less than 70% of the cells) | 0 | 0 | 0 | 10 to 100 | IC50 (HeLa; Homo sapiens): 100 to 1000 nM
4 | 10 to 100 | Cc1ccc(C(=O)Cn2c(-c3nonc3N)nc3ccccc32)cc1C [Example 53] | 0 | 2 (score 2 relating to strong activity comprising more than 70% of the cells) | 2 (score 2 relating to strong activity comprising more than 70% of the cells) | 0 | 2 (score 2 relating to strong activity comprising more than 70% of the cells) | 2 (score 2 relating to strong activity comprising more than 70% of the cells) | 0 | 2 (score 2 relating to strong activity comprising more than 70% of the cells) | 2 (score 2 relating to strong activity comprising more than 70% of the cells) | 2 (score 2 relating to strong activity comprising more than 70% of the cells) | 2 (score 2 relating to strong activity comprising more than 70% of the cells) | 2 (score 2 relating to strong activity comprising more than 70% of the cells) | 1 (1 relating to weak activity comprising less than 70% of the cells) | 2 (score 2 relating to strong activity comprising more than 70% of the cells) | 2 (score 2 relating to strong activity comprising more than 70% of the cells) | 0 | 0 | 0 | 10 to 100 | –
5 | 10 to 100 | Cc1ccc(C(=O)Cn2c(-c3nonc3NCCCO)nc3ccccc32)cc1C [Example 52] | 0 | 1 (1 relating to weak activity comprising less than 70% of the cells) | 2 (score 2 relating to strong activity comprising more than 70% of the cells) | 0 | 2 (score 2 relating to strong activity comprising more than 70% of the cells) | 2 (score 2 relating to strong activity comprising more than 70% of the cells) | 0 | 2 (score 2 relating to strong activity comprising more than 70% of the cells) | 2 (score 2 relating to strong activity comprising more than 70% of the cells) | 0 | 2 (score 2 relating to strong activity comprising more than 70% of the cells) | 2 (score 2 relating to strong activity comprising more than 70% of the cells) | 0 | 2 (score 2 relating to strong activity comprising more than 70% of the cells) | 2 (score 2 relating to strong activity comprising more than 70% of the cells) | 0 | 0 | 0 | 10 to 100 | –

Reference: patent publication USRE42890E1, “Furazanobenzimidazoles” (Basilea Pharmaceutica AG, priority 2003, dated 2011)
